Data published in PubChem BioAssay AID330 (DTP/NCI, 2004).
“And” between values parts separate entries of the source, which are not always exact repeats. Equal entries are not always repeated. Toxic doses and inconclusive results are not listed. The calls were made as follows: active = survival T/C of 150% or more; inactive = T/C below 125% in these data.

System: P388 leukemia ip, CD2F1 mice, survival T/C
Experiment: NCI In Vivo Anticancer Drug Screen. Data for tumor model P388 Leukemia (intraperitoneal) in CD2F1 (CDF1) mice
Details: endpoint: median survival time, higher = longer survival
Procedure, shortened: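 Mice carrying the transplanted tumor received test compound or vehicle. Survival was recorded in each group, and the value is the treated-group measurement divided by that of the vehicle-treated control group.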

[1] = dose: 25.0 mg/kg/injection, schedule: Q01DX009 (ip), vehicle: Klucel (hydroxypropylcellulose) (HPC)
[2] = dose: 50.0 mg/kg/injection, schedule: Q01DX009 (ip), vehicle: Klucel (hydroxypropylcellulose) (HPC)
[3] = dose: 100.0 mg/kg/injection, schedule: Q01DX009 (ip), vehicle: Klucel (hydroxypropylcellulose) (HPC)
[4] = dose: 60.0 mg/kg/injection, schedule: Q01DX005 (ip), vehicle: saline with Tween-80
[5] = dose: 120.0 mg/kg/injection, schedule: Q01DX005 (ip), vehicle: saline with Tween-80
[6] = dose: 240.0 mg/kg/injection, schedule: Q01DX005 (ip), vehicle: saline with Tween-80
[7] = dose: 50.0 mg/kg/injection, schedule: Q01DX009 (ip), vehicle: saline
[8] = dose: 100.0 mg/kg/injection, schedule: Q01DX009 (ip), vehicle: saline
[9] = dose: 6.25 mg/kg/injection, schedule: Q01DX009 (ip), vehicle: distilled water + Tween-80
[10] = dose: 12.5 mg/kg/injection, schedule: Q01DX009 (ip), vehicle: distilled water + Tween-80
[11] = dose: 25.0 mg/kg/injection, schedule: Q01DX009 (ip), vehicle: distilled water + Tween-80
[12] = dose: 50.0 mg/kg/injection, schedule: Q01DX009 (ip), vehicle: distilled water + Tween-80
[13] = dose: 100.0 mg/kg/injection, schedule: Q01DX009 (ip), vehicle: distilled water + Tween-80
[14] = dose: 200.0 mg/kg/injection, schedule: Q01DX009 (ip), vehicle: distilled water + Tween-80
[15] = dose: 50.0 mg/kg/injection, schedule: Q01DX005 (ip), vehicle: saline with Tween-80
[16] = dose: 100.0 mg/kg/injection, schedule: Q01DX005 (ip), vehicle: saline with Tween-80
[17] = dose: 200.0 mg/kg/injection, schedule: Q01DX005 (ip), vehicle: saline with Tween-80
[18] = dose: 200.0 mg/kg/injection, schedule: Q01DX009 (ip), vehicle: saline
[19] = dose: 100.0 mg/kg/injection, schedule: Q04DX003 (ip), vehicle: saline with Tween-80
[20] = dose: 200.0 mg/kg/injection, schedule: Q04DX003 (ip), vehicle: saline with Tween-80
[21] = dose: 400.0 mg/kg/injection, schedule: Q04DX003 (ip), vehicle: saline with Tween-80
[22] = dose: 200.0 mg/kg/injection, schedule: Q01DX009 (ip), vehicle: Klucel (hydroxypropylcellulose) (HPC)

Measured: T/C

O=C(NCc1ccccc1)c1ccc([N+](=O)[O-])cc1
inactive: dose: 50.0 mg/kg/injection, schedule: Q01DX009 (ip), vehicle: saline with Tween-80 87 % of control | dose: 100.0 mg/kg/injection, schedule: Q01DX009 (ip), vehicle: saline with Tween-80 95 % of control | dose: 200.0 mg/kg/injection, schedule: Q01DX009 (ip), vehicle: saline with Tween-80 95 % of control | dose: 400.0 mg/kg/injection, schedule: Q01DX009 (ip), vehicle: saline with Tween-80 91 % of control

O=c1c(N(CCO)CCO)cn(Cc2ccccc2)c(=O)n1Cc1ccccc1
inactive: dose: 25.0 mg/kg/injection, schedule: Q01DX005 (ip), vehicle: Klucel (hydroxypropylcellulose) (HPC) 100 % of control | dose: 50.0 mg/kg/injection, schedule: Q01DX005 (ip), vehicle: Klucel (hydroxypropylcellulose) (HPC) 102 % of control | dose: 100.0 mg/kg/injection, schedule: Q01DX005 (ip), vehicle: Klucel (hydroxypropylcellulose) (HPC) 103 % of control | dose: 200.0 mg/kg/injection, schedule: Q01DX005 (ip), vehicle: Klucel (hydroxypropylcellulose) (HPC) 97 % of control

C[n+]1c(C2(O)CCCCCCCCCCC2)sc2ccccc21
inactive: dose: 60.0 mg/kg/injection, schedule: Q01DX005 (ip), vehicle: Klucel (hydroxypropylcellulose) (HPC) 95 % of control | dose: 120.0 mg/kg/injection, schedule: Q01DX005 (ip), vehicle: Klucel (hydroxypropylcellulose) (HPC) 100 % of control | dose: 240.0 mg/kg/injection, schedule: Q01DX005 (ip), vehicle: Klucel (hydroxypropylcellulose) (HPC) 115 % of control

CC(=O)Oc1ccc2[nH]c(C)cc2c1
inactive: dose: 100.0 mg/kg/injection, schedule: Q01DX001 (ip), vehicle: saline with Tween-80 100 % of control | dose: 200.0 mg/kg/injection, schedule: Q01DX001 (ip), vehicle: saline with Tween-80 98 % of control | dose: 400.0 mg/kg/injection, schedule: Q01DX001 (ip), vehicle: saline with Tween-80 93 % of control | dose: 800.0 mg/kg/injection, schedule: Q01DX001 (ip), vehicle: saline with Tween-80 103 % of control

CC(=O)C1CCC=C2C1CC1CC2C1(C)C (stereo not drawn)
inactive: [1] 100 % of control | [2] 100 % of control | [3] 104 % of control

NC(CC(=O)O)C(F)(F)F (stereo not drawn)
inactive: [4] 99 % of control | [5] 100 % of control | [6] 102 % of control

Fc1cccc(NC(=S)SCc2ccc(Cl)cc2)c1
inactive: dose: 25.0 mg/kg/injection, schedule: Q01DX009 (ip), vehicle: saline 102 % of control | [7] 105 % of control | [8] 105 % of control | dose: 100.0 mg/kg/injection, schedule: Q01DX009 (ip), vehicle: suspension in saline 103 % of control

CC(=O)c1ccc2ccccc2c1OC(=O)c1cccnc1
inactive: [9] 100 % of control | [10] 104 % of control | [11] 111 % of control and 94 % of control | [12] 107 % of control and 111 % of control | [13] 117 % of control and 119 % of control | [14] 121 % of control

NC(=S)c1ccc(N=Cc2ccccn2)cc1
inactive: dose: 25.0 mg/kg/injection, schedule: Q01DX001 (ip), vehicle: Klucel (hydroxypropylcellulose) (HPC) 100 % of control | dose: 50.0 mg/kg/injection, schedule: Q01DX001 (ip), vehicle: Klucel (hydroxypropylcellulose) (HPC) 100 % of control | dose: 100.0 mg/kg/injection, schedule: Q01DX001 (ip), vehicle: Klucel (hydroxypropylcellulose) (HPC) 103 % of control and 106 % of control | dose: 200.0 mg/kg/injection, schedule: Q01DX001 (ip), vehicle: Klucel (hydroxypropylcellulose) (HPC) 102 % of control | dose: 400.0 mg/kg/injection, schedule: Q01DX001 (ip), vehicle: Klucel (hydroxypropylcellulose) (HPC) 105 % of control

O=c1[nH]c2cc(Cl)ccc2nc1/C=C(O)/C=C/c1ccccc1
inactive: [4] 98 % of control and 89 % of control | [5] 95 % of control | [6] 89 % of control and 91 % of control

Cc1cnc(C)[nH]1
inactive: [15] 102 % of control | [16] 86 % of control | [17] 102 % of control

O=C(O)C(=O)c1ccc(-c2ccccc2)cc1
inactive: dose: 50.0 mg/kg/injection, schedule: Q04DX003 (ip), vehicle: saline 104 % of control | dose: 100.0 mg/kg/injection, schedule: Q04DX003 (ip), vehicle: saline 100 % of control

CCCN(CCC)CCN1C(=O)NC(C)(c2ccccc2)C1=O (stereo not drawn)
inactive: dose: 7.5 mg/kg/injection, schedule: Q01DX005 (ip), vehicle: saline with Tween-80 100 % of control | dose: 15.0 mg/kg/injection, schedule: Q01DX005 (ip), vehicle: saline with Tween-80 101 % of control and 97 % of control | dose: 30.0 mg/kg/injection, schedule: Q01DX005 (ip), vehicle: saline with Tween-80 99 % of control and 103 % of control | [4] 101 % of control and 94 % of control and 97 % of control

C=CC1O[C@H](C)C[C@H](C)O1 (stereo partly drawn)
inactive: dose: 60.0 mg/kg/injection, schedule: Q01DX005 (ip), vehicle: saline 109 % of control | dose: 120.0 mg/kg/injection, schedule: Q01DX005 (ip), vehicle: saline 100 % of control | dose: 240.0 mg/kg/injection, schedule: Q01DX005 (ip), vehicle: saline 104 % of control

C=C(C)C1CC2(C)C(C)CC(O)CC2C(OC(=O)C=C(C)C)C1O (stereo not drawn)
inactive: [1] 93 % of control | [2] 96 % of control | [3] 97 % of control

Cc1nc2ccccc2c(=O)n1N1C2CCCC21 (stereo not drawn)
inactive: dose: 50.0 mg/kg/injection, schedule: Q04DX002 (ip), vehicle: Klucel (hydroxypropylcellulose) (HPC) 103 % of control | dose: 100.0 mg/kg/injection, schedule: Q04DX002 (ip), vehicle: Klucel (hydroxypropylcellulose) (HPC) 98 % of control | dose: 200.0 mg/kg/injection, schedule: Q04DX002 (ip), vehicle: Klucel (hydroxypropylcellulose) (HPC) 100 % of control

CCOC(=O)Cc1cc2c(cc1C)CNC(=O)C2
inactive: [9] 94 % of control | [10] 100 % of control | [11] 100 % of control | [12] 94 % of control | [13] 94 % of control | [14] 90 % of control | dose: 400.0 mg/kg/injection, schedule: Q01DX009 (ip), vehicle: distilled water + Tween-80 102 % of control

COc1ccc2c(c1)s/c(=N/N)n2CCCS(=O)(=O)O
inactive: [7] 109 % of control | [8] 103 % of control | [18] 110 % of control

N#CC(OC(=O)c1ccccc1)C(OC(=O)c1ccccc1)C(COC(=O)c1ccccc1)OC(=O)c1ccccc1 (stereo not drawn)
inactive: [15] 99 % of control and 92 % of control | [16] 94 % of control | [17] 99 % of control

CC1(C)SC(C(NC(=O)Cc2ccccc2)C(=O)O)NC1C(=O)O (stereo not drawn)
inactive: [19] 90 % of control | [20] 100 % of control | [21] 104 % of control

C[N+](C)(C)CCOP(=O)([O-])OC1CCCC1
inactive: [7] 103 % of control | [8] 100 % of control | [18] 105 % of control

CCCCOC(=O)CCC(C)=O
inactive: [19] 100 % of control | [20] 100 % of control | [21] 104 % of control

Clc1ccc(C2SC=Cc3ccccc32)cc1 (stereo not drawn)
inactive: dose: 12.5 mg/kg/injection, schedule: Q01DX009 (ip), vehicle: Klucel (hydroxypropylcellulose) (HPC) 105 % of control and 113 % of control | [1] 105 % of control and 115 % of control | [2] 104 % of control and 112 % of control | [3] 116 % of control and 122 % of control | [22] 122 % of control and 95 % of control

Nc1ccc(CCCC(=O)NCc2cccnc2)cc1
inactive: [4] 106 % of control | [5] 96 % of control | [6] 91 % of control

COC(=O)C1=C(C(=O)OC)C2(C)C=CC1C1C(OC(C)=O)C(OC(C)=O)C12 (stereo not drawn)
inactive: dose: 100.0 mg/kg/injection, schedule: Q04DX003 (ip), vehicle: Klucel (hydroxypropylcellulose) (HPC) 105 % of control | dose: 200.0 mg/kg/injection, schedule: Q04DX003 (ip), vehicle: Klucel (hydroxypropylcellulose) (HPC) 108 % of control | dose: 400.0 mg/kg/injection, schedule: Q04DX003 (ip), vehicle: Klucel (hydroxypropylcellulose) (HPC) 107 % of control

Cc1c/c(=N\O)c2c(=O)c([N+](=O)[O-])coc2n1O
inactive: [2] 100 % of control | [3] 100 % of control | [22] 97 % of control
